Where “and” joins values, the source holds several entries; their conditions need not be identical. Identical values can stand only once.
Tests used:
[1] = tested on: HFHSD-fed obese C57BL6/J mice; assay: Fasting glucose in HFHSD-fed mice; assay type: in vivo, mouse; parameters: Fasting glucose, Average / Fasting glucose (individual mouse): unit not given here; settings: for Fasting glucose, Average / Fasting glucose (individual mouse): Figure 5K; for Fasting glucose, Average: 100 mg/kg/day; for Fasting glucose (individual mouse): BPRPT0245 group
Method: Ptgr2^+/+ and Ptgr2^−/− mice were created by the Transgenic Mouse Model Core Facility of the National Core Facility for Biopharmaceuticals, Ministry of Science and Technology, Taiwan and the Animal Resources Laboratory of National Taiwan University Centers of Genomic and Precision Medicine. C57BL6/J mice were purchased from National Laboratory Animal Center. All animal experiments were performed according to institutional ethical guidelines and were approved by the Institutional Animal Care and Use Committee (IACUC) of National Taiwan University Medical College (IACUC No.: 20140456). All mice were housed under standard conditions at 23 °C and 12/12 h. light/dark (7 AM–7 PM) cycle in animal centers of the National Taiwan University Medical College, which is accredited by the Association for Assessment and Accreditation of Laboratory Animal Care International (AAALAC). Mice were provided shelters and sticks weekly. We used adequate anesthetic procedure to reduce pain, suffering and distress according to our animal center regulation. We reported expected or unexpected adverse events to the veterinarian of our animal center. The humane endpoints include 20% weight loss, rough hair coat, hunched posture, lethargy or persistent, or any condition interfering with eating or drinking. Eight-week-old male mice were fed on either a high-fat high-sucrose diet (HFHSD) (cat. no. D12331, Research Diets) or a regular chow diet (cat no. 5001, Lab Diet). BPRPT0245 was dissolved 3% dimethylacetamide and 10% cremophor in water and administered daily to HFHSD-fed obese C57BL6/J mice by oral gavage (100 mg/kg/day).

hPTGR2 = hPTGR2 (Homo sapiens, UniProt Q8N8N7); assay: 15-keto-PGE2-dependent PPARγ trans-activation in PTGR2-transfected HEK293T cells; assay type: cell-based; parameters: expressed in transfected cells; host or cells: HEK293T; settings: restoring 15-keto-PGE2-dependent PPARγ trans-activation, HEK293T expressing recombinant PTGR2
From the text: Based on these findings from the Ptgr2^−/− mice, we next searched for druggable chemical inhibitors that can effectively suppress human PTGR2 (hPTGR2) enzymatic activity. Using a high-throughput screening of 12,500 chemicals, we identified 31 hits and generated 282 derivatives using a molecular hybridization strategy among the hits. The in vitro IC50 (the half-maximal inhibitory concentration), EC50 (the concentration for half-maximal effect), and the compound’s activity to restore 15-keto-PGE2-dependent PPARγ trans-activation in HEK293T cells expressing recombinant PTGR2 were profiled.
Gal4-PPARγ/UAS-LUC reporter assay was conducted as previously described (Wu et al, [2008]) with minor modifications. Briefly, HEK293T cells were seeded in 24-well plates at 1 × 10^5 cells/well. After 24-h growth, a DNA solution containing UASG reporter construct, GAL4-PPAR expression plasmid, and TK-Rluc (Renilla luciferase) reporter construct (internal control) was transfected using TurboFect™ transfection reagent (cat. no. R0532, Thermo Fisher). Cells were treated and harvested after another 24 and 48 h, respectively. Luciferase activity was measured using Luc-Pair™ Duo-Luciferase HS Assay Kit (cat. no. LF600, Promega) and normalized with the TK reporter signal.

[2] = tested on: HFHSD-fed obese C57BL6/J mice; assay: Adipocyte size and number in perigonadal fat (H&E stain); assay type: in vivo, mouse; settings: 100 mg/kg/day oral, vs vehicle
From the text: Tissues were fixed in 4% paraformaldehyde and then embedded in paraffin before sectioning and staining. The stained sections were scanned and analyzed using a MIRAX viewer (http://www.zeiss.de/mirax) and Image J software (http://rsbwed.nih.gov/ij/).

[3] = tested on: HFHSD-fed obese C57BL6/J mice; assay: Tissue weights (fat pads, liver, BAT); assay type: in vivo, mouse; parameters: Inguinal fat weight (Figure 5N): unit not given here
[4] = 100 mg/kg/day oral, HFHSD-fed mice, vs vehicle
[5] = individual animals, in g (unit assumed)

hPTGR2, sequence (Q8N8N7 whole entry): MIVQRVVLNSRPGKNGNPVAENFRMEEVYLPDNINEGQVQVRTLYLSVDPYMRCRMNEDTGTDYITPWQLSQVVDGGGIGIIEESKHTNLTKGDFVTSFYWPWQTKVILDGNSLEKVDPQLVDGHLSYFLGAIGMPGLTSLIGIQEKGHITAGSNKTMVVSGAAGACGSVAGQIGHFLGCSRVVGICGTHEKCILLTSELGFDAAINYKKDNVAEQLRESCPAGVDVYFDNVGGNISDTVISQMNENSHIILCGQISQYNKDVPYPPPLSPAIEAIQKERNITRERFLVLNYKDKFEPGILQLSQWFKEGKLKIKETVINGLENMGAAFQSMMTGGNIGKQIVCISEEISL

Compound: Cc1[nH]c2nc(C(C)N3CCN(c4ccccc4)CC3)nn2c(=O)c1Cc1ccc(F)cc1 (stereo not drawn) [BPRPT0245]
- fasting plasma glucose [1, 4]: lowered fasting plasma glucose
- Fasting glucose, Average ([1]; week 0): 172.4
- Fasting glucose (individual mouse) ([1]; week 0): 140 and 191 and 194 and 229 and 230 and 148 and 190 and 111 and 179
- Fasting glucose, Average ([1]; week 2): 215
- Fasting glucose (individual mouse) ([1]; week 2): 178 and 220 and 216 and 291 and 182 and 199 and 225 and 148
- Fasting glucose, Average ([1]; week 4): 172.4
- Fasting glucose (individual mouse) ([1]; week 4): 162 and 198 and 190 and 178 and 194 and 163 and 177
- Fasting glucose, Average ([1]; week 6): 168.6
- Fasting glucose (individual mouse) ([1]; week 6): 151 and 215 and 171 and 164 and 188 and 139 and 181
- Fasting glucose, Average ([1]; week 8): 182.6
- Fasting glucose (individual mouse) ([1]; week 8): 164 and 212 and 172 and 202 and 171 and 198 and 219
- Fasting glucose, Average ([1]; week 10): 183.2
- Fasting glucose (individual mouse) ([1]; week 10): 224 and 198 and 153 and 169 and 162 and 150 and 171
- Fasting glucose, Average ([1]; week 12): 184.933
- Fasting glucose (individual mouse) ([1]; week 12): 187 and 219 and 140 and 175 and 200 and 156 and 161 and 177
- Fasting glucose, Average ([1]; week 14): 181.467
- Fasting glucose (individual mouse) ([1]; week 14): 220 and 210 and 169 and 202 and 174 and 149 and 142
- Fasting glucose, Average ([1]; week 16): 186.667
- Fasting glucose (individual mouse) ([1]; week 16): 212 and 199 and 167 and 164 and 191 and 183 and 171
- Fasting glucose, Average ([1]; week 18): 173.933
- Fasting glucose (individual mouse) ([1]; week 18): 179 and 178 and 134 and 146 and 197 and 201 and 147 and 181 and 202
- Fasting glucose, Average ([1]; week 20): 159.8
- Fasting glucose (individual mouse) ([1]; week 20): 179 and 154 and 153 and 170 and 174 and 220 and 131 and 171 and 134
- Fasting glucose, Average ([1]; week 22): 158.933
- Fasting glucose (individual mouse) ([1]; week 22): 195 and 156 and 123 and 149 and 148 and 163 and 132 and 201 and 161
- Fasting glucose, Average ([1]; week 24): 164.4
- Fasting glucose (individual mouse) ([1]; week 24): 119 and 164 and 166 and 168 and 204 and 174
- EC50 (hPTGR2): 0.0492 µM
- adipocyte number [2]: not changed
- adipocyte size [2]: reduced
- white fat mass and liver mass [3, 4]: significantly reduced
- Inguinal fat weight (Figure 5N) ([3]; individual animals): 3.1135 and 2.4997 and 3.7598 and 1.225 and 2.118 and 3.7874 and 2.0547 and 1.3489 and 2.0692 and 1.6337
- BAT weight (Figure 5N) [3, 5]: 0.1698 and 0.1291 and 0.2802 and 0.1132 and 0.1765 and 0.2813 and 0.0604 and 0.0923 and 0.1293
- Liver weight (Figure 5N) [3, 5]: 1.4298 and 1.1221 and 1.8053 and 1.0426 and 1.3688 and 2.9793 and 1.3504 and 1.1836 and 1.2693 and 1.0805
- Mesenteric fat weight (Figure 5N) [3, 5]: 1.0785 and 0.4119 and 1.0515 and 0.3617 and 0.4577 and 1.3111 and 0.5735 and 0.369 and 0.413 and 0.3561
- Perigonadal fat weight (Figure 5N) [3, 5]: 2.771 and 2.393 and 3.067 and 1.288 and 2.096 and 2.817 and 2.396 and 1.58 and 2.043 and 2.048

Source: article PMC12081876, “Identification of PTGR2 inhibitors as a new therapeutic strategy for diabetes and obesity” (EMBO Molecular Medicine, 2025)
